Test systems include OVCAR-5; Malme-3M; MCF7; UACC-62; SF-268; RPMI-8226; SF-539; SW-620; HL-60; A549; LOX IMVI; SK-MEL-28; COLO 205; HT-29; NCI-H460; SK-MEL-2; TK-10; SR.
Common to all, as to assay: inhibition of tumour cell growth, NCI panel, 48 h

The record followed here is ChEMBL document CHEMBL1201862, “PubChem BioAssay data set” (2004).

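In this assay, cells in 96-well plates receive the compound at five concentrations for 48 hours. Endpoints are linearly interpolated between the surrounding concentrations. At the GI50, growth is halved.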 Calls of active or inactive are those of the source. Cut-off read from the data, not from the text of the source: active = GI50 up to about 1.1 µM and inactive = higher. A value given as a limit tells only on which side of the number the result lay.

For the compound `Cc1cc(/N=N/c2ccc(/N=N/c3c(O)c(S(=O)(=O)O)cc4cc(S(=O)(=O)O)ccc34)cc2C)ccc1/N=N/c1ccc2cc(S(=O)(=O)O)cc(S(=O)(=O)O)c2c1`, the GI50 with OVCAR-5, in the test with Malme-3M, in the test with MCF7, in the test with UACC-62, with SF-268 and in the test with RPMI-8226 was > 100 µM (inactive) each time. Moreover, the GI50 with SF-539, with SW-620, in the test on HL-60, with A549, with LOX IMVI and in the test on SK-MEL-28 was > 100 µM (inactive) in each case. The GI50 in the test on COLO 205 is > 100 µM (inactive); with HT-29 it was > 31.6 µM (inactive); with NCI-H460, > 100 µM (inactive); with SK-MEL-2, > 100 µM (inactive).

For the compound `CC1=C(C(=O)Nc2ccccc2)C(c2ccccc2Cl)C(C(=O)Nc2ccccc2)=C(C)N1`, the GI50 in the test on OVCAR-5 is 24.3 µM (inactive); in the test on Malme-3M, 20 µM (inactive); with UACC-62 it was 13.6 µM (inactive); in the test with SF-268, 24.4 µM (inactive); with TK-10, 38.7 µM (inactive); in the test on RPMI-8226, 19.4 µM (inactive). Moreover, the GI50 is 20 µM (inactive) in the test on SF-539; 30.7 µM (inactive) in the test with SW-620; < 0.01 µM (active) in the test with HL-60; 41.6 µM (inactive) in the test with A549; 18.6 µM (inactive) in the test with LOX IMVI; 27.1 µM (inactive) in the test on SK-MEL-28. Besides, the GI50 is 19.4 µM (inactive) in the test with COLO 205, 21 µM (inactive) in the test with HT-29, 25.8 µM (inactive) in the test on SR and 18 µM (inactive) in the test with SK-MEL-2.

Regarding `CCOc1ccccc1NC(=O)CC1Sc2ccccc2NC1=O` (stereo unspecified), the GI50 in the test with OVCAR-5 is > 100 µM (inactive); in the test with Malme-3M, 52.7 µM (inactive); in the test on UACC-62, 36.2 µM (inactive); in the test on SF-268 it was > 100 µM (inactive); in the test with TK-10 it was > 100 µM (inactive); in the test with SF-539, 62.7 µM (inactive). Also, the GI50 is 49.2 µM (inactive) with SW-620; 23.9 µM (inactive) with HL-60; 82.2 µM (inactive) in the test on A549; > 100 µM (inactive) in the test on LOX IMVI; > 100 µM (inactive) in the test on SK-MEL-28; 33.3 µM (inactive) with COLO 205. Moreover, the GI50 in the test with HT-29 was 55.3 µM (inactive); with SR, 21 µM (inactive); in the test on NCI-H460, 44.1 µM (inactive); in the test with SK-MEL-2 it was 45.8 µM (inactive).

In the case of `CCS(=O)(=O)Nc1ccc(Nc2c3ccccc3nc3ccccc23)c(OC)c1`, the GI50 in the test with OVCAR-5 is 3.23 µM (inactive); with Malme-3M, 0.515 µM (active); in the test with MCF7, 0.0984 µM (active); with UACC-62, 0.416 µM (active); in the test with SF-268, 0.421 µM (active); in the test with RPMI-8226 it was 0.28 µM (active). Further, the GI50 in the test with SF-539 is 0.295 µM (active); in the test on SW-620 it was 0.527 µM (active); with HL-60, 0.0168 µM (active); in the test with A549, 0.0205 µM (active); in the test on LOX IMVI, 0.275 µM (active); in the test on SK-MEL-28, 3.03 µM (inactive). Besides, the GI50 in the test on COLO 205 is 2.22 µM (inactive); in the test on HT-29, 1.07 µM (active); in the test with NCI-H460 it was < 0.0114 µM (active); with SK-MEL-2, 5.37 µM (inactive).

Regarding `COC(=O)N/N=C(\C)c1sc(-c2nc(C)c(/C(C)=N/NC(=O)OC)s2)nc1C`, the GI50 with OVCAR-5, with Malme-3M, with UACC-62, in the test on SF-268, in the test on TK-10 and in the test on RPMI-8226 was > 100 µM (inactive) each time. The GI50 with SF-539 is > 100 µM (inactive); in the test with HL-60, 39.1 µM (inactive); in the test on A549, > 100 µM (inactive); with LOX IMVI it was 64.1 µM (inactive); with SK-MEL-28 it was > 100 µM (inactive); in the test on COLO 205, > 100 µM (inactive). For the same compound, the GI50 in the test on HT-29 is > 100 µM (inactive); with SR, 20.7 µM (inactive); in the test with NCI-H460, > 100 µM (inactive); in the test on SK-MEL-2, > 100 µM (inactive).

For the compound `CC1=NN2C(c3ccc([N+](=O)[O-])cc3)=CSC2=NC(C)(C)C1`, the GI50 in the test on OVCAR-5, with Malme-3M, with UACC-62, with SF-268, in the test on TK-10 and in the test on RPMI-8226 was > 100 µM (inactive) in each case. Further, the GI50 in the test on SF-539, in the test with SW-620, in the test with HL-60, with A549, with LOX IMVI and in the test with SK-MEL-28 was > 100 µM (inactive) throughout. Besides, the GI50 with COLO 205, with HT-29, with SR, in the test with NCI-H460 and in the test on SK-MEL-2 was > 100 µM (inactive) each time.

As for `CC1=C(N2CC2)C(=O)C(CO)=C(N2CC2)C1=O`, the GI50 was 0.067 µM (active) in the test with OVCAR-5; 0.0357 µM (active) in the test on Malme-3M; 0.0106 µM (active) in the test on MCF7; 0.022 µM (active) with UACC-62; 0.0129 µM (active) in the test on SF-268; 0.0258 µM (active) in the test with TK-10. Further, the GI50 in the test with RPMI-8226 is < 0.0142 µM (active); in the test on SF-539, < 0.0123 µM (active); with SW-620, 0.0123 µM (active); in the test on HL-60, < 0.01 µM (active); with LOX IMVI, < 0.01 µM (active); with SK-MEL-28 it was 0.0711 µM (active). Further, the GI50 is 0.0132 µM (active) with HT-29, < 0.01 µM (active) in the test with SR and < 0.01 µM (active) in the test on NCI-H460.

`COc1cccc(/C=C2\CCC(C)(CN(C)C)C2=O)c1` (stereo unspecified): the GI50 is > 100 µM (inactive) with OVCAR-5; > 100 µM (inactive) with Malme-3M; > 100 µM (inactive) with UACC-62; > 100 µM (inactive) in the test on SF-268; > 100 µM (inactive) with TK-10; 28.4 µM (inactive) with RPMI-8226. Also, the GI50 was > 100 µM (inactive) with SF-539; 57 µM (inactive) in the test with SW-620; > 100 µM (inactive) in the test with A549; > 100 µM (inactive) in the test with LOX IMVI; > 100 µM (inactive) with SK-MEL-28; 60.1 µM (inactive) in the test with COLO 205. Moreover, the GI50 in the test with HT-29 is 53.3 µM (inactive); in the test with SR, 74.3 µM (inactive); with NCI-H460, > 100 µM (inactive); with SK-MEL-2 it was > 100 µM (inactive).

Turning to `O=C(CCN(C(=O)O)S(=O)(=O)c1ccc(NC(=O)c2ccccc2)cc1)Nc1ccccc1`, the GI50 is > 100 µM (inactive) with OVCAR-5; > 100 µM (inactive) in the test with Malme-3M; > 61.9 µM (inactive) in the test with UACC-62; > 100 µM (inactive) in the test with SF-268; > 100 µM (inactive) with TK-10; > 64.1 µM (inactive) with RPMI-8226. In addition, the GI50 is > 100 µM (inactive) with SF-539; > 55 µM (inactive) with SW-620; > 61.8 µM (inactive) in the test on HL-60; > 46.5 µM (inactive) in the test on A549; > 57.7 µM (inactive) with LOX IMVI; > 100 µM (inactive) with SK-MEL-28. Besides, the GI50 with COLO 205 is > 61.4 µM (inactive); in the test with HT-29 it was > 94.2 µM (inactive); with SR it was 15.8 µM (inactive); in the test on NCI-H460 it was > 61.9 µM (inactive); in the test on SK-MEL-2, > 100 µM (inactive).

For the compound `NC(=O)c1ncn(CCN2CCN(C(=O)NCCCCCCNC(=O)N3CCN(CCn4cnc(C(N)=O)c4N)CC3)CC2)c1N`, the GI50 in the test with OVCAR-5, in the test with Malme-3M, in the test with UACC-62, with SF-268, in the test with TK-10 and with RPMI-8226 was > 100 µM (inactive) each time. The GI50 in the test with SF-539, with SW-620, with HL-60, in the test with A549, in the test on LOX IMVI and in the test with SK-MEL-28 was > 100 µM (inactive) each time. Also, the GI50 in the test on COLO 205, in the test on HT-29, in the test on SR, with NCI-H460 and with SK-MEL-2 was > 100 µM (inactive) throughout.

`C/C(=N\Nc1nnc(S)n1N)c1c(O)cc(C)oc1=O`: the GI50 with Malme-3M, in the test with UACC-62, in the test on SF-268, in the test on TK-10, in the test on SF-539 and with SW-620 was > 100 µM (inactive) each time. Further, the GI50 in the test on HL-60, in the test on A549, in the test with LOX IMVI, in the test on SK-MEL-28, with HT-29 and with SR was > 100 µM (inactive) in each case. Also, the GI50 in the test on NCI-H460 and in the test with SK-MEL-2 was > 100 µM (inactive) each time.

For the compound `C/C=C/CC(S(=O)(=O)c1ccccc1)S(=O)(=O)c1ccccc1`, the GI50 was > 100 µM (inactive) in the test on OVCAR-5; 36.1 µM (inactive) in the test with UACC-62; > 100 µM (inactive) in the test on TK-10; 95.3 µM (inactive) in the test with RPMI-8226; > 100 µM (inactive) with SF-539; > 100 µM (inactive) in the test on SW-620. The GI50 with HL-60, in the test on A549, in the test with LOX IMVI, in the test on SK-MEL-28, in the test on COLO 205 and in the test with HT-29 was > 100 µM (inactive) each time. The GI50 in the test on SR, in the test with NCI-H460 and in the test on SK-MEL-2 was > 100 µM (inactive) in each case.
